Data reported in patent US20250152585A1, “PHARMACEUTICAL COMPOUND” (Duke Street Bio Limited, priority 2022, published 2025).
Where two headings read alike, the source gives them in different places.

Key:
[1] = target: T1, full length N-terminally FLAG-tagged PARP1 (Homo sapiens, UniProt P09874); assay: PARP1 probe displacement HTRF assay; details: for Selectivity: PARP1 over PARP2, ratio Kd (PARP2)/Kd (PARP1); for Kd: binned Kd
[2] = target: T2, N-terminally FLAG-tagged PARP2 (amino acids 1-583) (Homo sapiens, UniProt Q9UGN5); assay: PARP2 probe displacement HTRF assay; type: binding; details: binned Kd
T2 construct: N-terminally FLAG-tagged PARP2 (amino acids 1-583)
Experimental: Data analysis was performed identical as for PARP1.

PARP1 = target: T3, PARP1 (Homo sapiens, UniProt P09874); assay: NanoBRET cellular target occupancy assay, PARP1; type: cell-based
T3 construct: host or cells: HEK293

[3] = target: T1, full length N-terminally FLAG-tagged PARP1; assay: PARP1 biochemical DELFIA assay (auto-PARylation); set-up: recombinant full length human N-terminally FLAG-tagged PARP1
PARP2 = target: T4, PARP2 (Homo sapiens, UniProt Q9UGN5); assay: NanoBRET cellular target occupancy assay, PARP2; type: cell-based; details: HEK293 cells transiently transfected with PARP2-NanoLuc fusion; tracer 2 nM; 2 hours at 37° C.; Kd by Cheng-Prussoff
T4 construct: host or cells: HEK293
Description: NanoBRET Cellular Target Occupancy Assay

[4] = read-out: PARP1 HTRF, PARP1 probe displacement HTRF
[5] = binned IC50, PARP1 biochemical DELFIA assay
[6] = read-out: PARP1 HTRF, probe displacement HTRF
[7] = binned IC50, biochemical auto-PARylation assay
[8] = PARP1 HTRF, PARP1 probe displacement HTRF

T4 sequence (Q9UGN5 whole entry, the tested form may be a part): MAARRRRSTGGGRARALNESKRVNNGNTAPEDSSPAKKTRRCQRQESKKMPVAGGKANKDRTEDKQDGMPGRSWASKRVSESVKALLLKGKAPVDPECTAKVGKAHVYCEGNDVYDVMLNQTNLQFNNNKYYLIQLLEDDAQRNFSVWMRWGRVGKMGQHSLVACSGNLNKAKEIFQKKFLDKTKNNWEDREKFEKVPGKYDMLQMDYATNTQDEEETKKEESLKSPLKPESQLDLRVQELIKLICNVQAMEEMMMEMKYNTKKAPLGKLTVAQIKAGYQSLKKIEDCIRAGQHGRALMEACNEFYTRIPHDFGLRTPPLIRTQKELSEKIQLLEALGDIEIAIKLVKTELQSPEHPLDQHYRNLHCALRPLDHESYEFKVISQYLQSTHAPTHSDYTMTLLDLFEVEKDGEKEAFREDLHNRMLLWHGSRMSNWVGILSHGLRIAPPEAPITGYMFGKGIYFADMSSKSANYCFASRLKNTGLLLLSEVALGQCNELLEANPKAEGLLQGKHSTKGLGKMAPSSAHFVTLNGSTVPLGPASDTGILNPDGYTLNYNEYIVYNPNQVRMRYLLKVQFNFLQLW
T2 sequence (Q9UGN5 whole entry, the tested form may be a part): as above
T1 sequence (P09874 whole entry, the tested form may be a part): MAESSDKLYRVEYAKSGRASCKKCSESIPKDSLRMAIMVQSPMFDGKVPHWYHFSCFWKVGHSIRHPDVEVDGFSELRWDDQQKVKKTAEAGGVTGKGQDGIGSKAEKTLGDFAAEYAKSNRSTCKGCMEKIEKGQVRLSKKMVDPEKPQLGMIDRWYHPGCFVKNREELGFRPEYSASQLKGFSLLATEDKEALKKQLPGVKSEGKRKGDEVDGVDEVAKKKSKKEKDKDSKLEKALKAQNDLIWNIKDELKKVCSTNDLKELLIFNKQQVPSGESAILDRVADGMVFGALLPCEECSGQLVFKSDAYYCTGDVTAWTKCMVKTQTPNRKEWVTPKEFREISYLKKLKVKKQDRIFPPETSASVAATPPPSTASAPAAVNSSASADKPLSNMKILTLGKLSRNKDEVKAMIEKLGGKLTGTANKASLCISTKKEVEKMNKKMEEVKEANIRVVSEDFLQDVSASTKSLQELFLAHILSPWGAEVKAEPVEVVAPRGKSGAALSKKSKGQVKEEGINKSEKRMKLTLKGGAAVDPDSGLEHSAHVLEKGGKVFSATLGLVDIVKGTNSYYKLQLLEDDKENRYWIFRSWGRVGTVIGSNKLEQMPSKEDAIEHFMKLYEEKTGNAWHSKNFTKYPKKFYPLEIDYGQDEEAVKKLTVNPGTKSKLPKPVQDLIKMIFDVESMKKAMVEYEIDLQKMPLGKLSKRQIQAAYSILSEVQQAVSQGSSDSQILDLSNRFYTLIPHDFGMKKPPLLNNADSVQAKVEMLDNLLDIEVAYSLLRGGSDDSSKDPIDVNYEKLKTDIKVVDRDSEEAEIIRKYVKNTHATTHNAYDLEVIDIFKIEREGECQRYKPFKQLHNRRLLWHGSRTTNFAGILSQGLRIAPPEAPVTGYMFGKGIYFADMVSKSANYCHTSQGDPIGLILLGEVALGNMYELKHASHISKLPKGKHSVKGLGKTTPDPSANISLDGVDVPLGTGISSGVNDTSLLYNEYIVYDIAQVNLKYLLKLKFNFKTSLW
T3 sequence (P09874 whole entry): as the sequence (P09874 whole entry, the tested form may be a part) above

SMILES | Selectivity ([1]; probe displacement HTRF) | Kd [1, 4] [nM] | Kd ([2]; PARP2 probe displacement HTRF) [nM] | IC50 [3, 5] [nM] | Kd ([2]; probe displacement HTRF) [nM] | Kd [1, 6] [nM] | IC50 [3, 7] [nM] | other results
CNC(=O)c1ccc(N2CCC(N3CCC(c4cc5cccc(F)c5c(=O)[nH]4)C3)CC2)c(Cl)n1 (single isomer, unassigned) [Compound 183b] | +++ (+++ indicate a value of at least 100) | < 10 | 100 to 1000 | < 10 |  |  |  | Kd (PARP1; HEK293 cells transiently transfected with PARP1-NanoLuc fusion, tracer 11 nM, 2 hours at 37° C., Kd by Cheng-Prussoff): < 10 nM; Selectivity (PARP1; NanoBRET, PARP1 over PARP2, Kd (PARP2)/Kd (PARP1)): +++ (+++ indicate a value of at least 100); Kd (PARP2): 1000 to 10000 nM
CNC(=O)c1ccc(N2CCC(N3CCC(c4cc5c(F)cncc5c(=O)[nH]4)C3)CC2)c(F)n1 (single isomer, unassigned) [Compound 343a, 6-fluoro-5-(4-(3-(5-fluoro-1-oxo-1,2-dihydro-2,7-naphthyridin-3-yl)pyrrolidin-1-yl)piperidin-1-yl)-N-methylpicolinamide] |  |  |  |  | 100 to 1000 |  |  | Kd (PARP2): 1000 to 10000 nM
CNC(=O)c1ccc(N2CCC(N3CCC(c4cc5c(c(=O)[nH]4)CCCC5)C3)CC2)c(F)n1 (single isomer, unassigned) [Compound 337b, 6-fluoro-N-methyl-5-(4-(3-(1-oxo-1,2,5,6,7,8-hexahydroisoquinolin-3-yl)pyrrolidin-1-yl)piperidin-1-yl)picolinamide] | +++ (+++ indicate a value of at least 100) |  |  |  |  | < 10 | < 10 | Kd (PARP2): 100 to 1000 nM
CNC(=O)c1ccc(N2CCC(N3CC4(c5nc6cccc(F)c6c(=O)[nH]5)CC3C4)CC2)cn1 [Compound 227] | +++ (+++ indicate a value of at least 100) |  |  |  | 100 to 1000 |  | < 10 | Kd ([1]; PARP1 HTRF, probe displacement HTRF): < 10 nM
N#Cc1ccc(N2CCC(N3CCC(c4cc5cccc(F)c5c(=O)[nH]4)C3)CC2)c(Cl)c1 (single isomer, unassigned) [Compound 378a] | +++ (+++ indicate a value of at least 100) |  |  |  | 100 to 1000 | < 10 | < 10 | 
CNC(=O)c1ccc(N2CCC(N3CCC(c4cc5[nH]nc(C(F)(F)F)c5c(=O)[nH]4)C3)CC2)cn1 (single isomer, unassigned) [Compound 194a, N-methyl-5-(4-(3-(4-oxo-3-(trifluoromethyl)-4,5-dihydro-1H-pyrazolo[4,3-c]pyridin-6-yl)pyrrolidin-1-yl)piperidin-1-yl)picolinamide] | + (+ indicates a value of 10 to less than 50) |  | 1000 to 10000 | 10 to 100 |  |  |  | Kd [1, 8]: 10 to 100 nM
CNC(=O)c1ccc(N2CCC(N3CCC(c4cc5c(F)cncc5c(=O)[nH]4)C3)CC2)cn1 (single isomer, unassigned) [Compound 331a] | +++ (+++ indicate a value of at least 100) |  |  |  | 100 to 1000 | < 10 | < 10 | 
O=C(NC1COC1)c1ccc(N2CCC(N3CCC(c4nc5ccccc5c(=O)[nH]4)C3)CC2)cn1 (racemic) [Compound 229rac] | +++ (+++ indicate a value of at least 100) |  |  |  | 100 to 1000 | < 10 | 10 to 100 | 
CNC(=O)c1ccc(N2CCC(N3CCC(c4[nH]c(=O)c5c(F)cccc5c4F)C3)CC2)c(F)n1 (single isomer, unassigned) [Compound 402a] | +++ (+++ indicate a value of at least 100) |  |  |  | 100 to 1000 | < 10 | < 10 | 
CNC(=O)c1ccc(N2CCC(N3CCC(c4nc5c(C)cn(C)c5c(=O)[nH]4)C3)CC2)cn1 (racemic) [Compound 163rac] | +++ (+++ indicate a value of at least 100) | < 10 | 100 to 1000 | < 10 |  |  |  | 
CNC(=O)c1ccc(N2CCC(N3CCC(c4cc5cccc(F)c5c(=O)[nH]4)C3)CC2)cc1F (single isomer, unassigned) [Compound 281a] | + (+ indicates a value of 10 to less than 50) |  |  |  | 10 to 100 | < 10 | < 10 | 
CNC(=O)c1ccc(N2CCC(N3CCC(c4nc5c(F)ccc(F)c5c(=O)[nH]4)C3)CC2)cn1 (single isomer, unassigned) [Compound 182b] | +++ (+++ indicate a value of at least 100) | < 10 | 100 to 1000 | < 10 |  |  |  | 
O=c1[nH]c(C2CCN(C3CCN(c4ccc(OC(F)F)nc4)CC3)C2)cc2ccc(F)cc12 (single isomer, unassigned) [Compound 374b] | ++ (++ indicates a value of 50 to less than 100) |  |  |  | 10 to 100 | < 10 | < 10 | 
CNC(=O)c1ccc(N2CCC(N3CCCC(c4nc5c(c(=O)[nH]4)CCCC5)C3)CC2)cn1 (single isomer, unassigned) [Compound 146a] | − (− indicates a value of less than 10) | 100 to 1000 | 1000 to 10000 | 100 to 1000 |  |  |  | 
CNC(=O)c1cnc(N2CCC(N3CCCC(c4nc5ccccc5c(=O)[nH]4)C3)CC2)cn1 (single isomer, unassigned) [Compound 99b] | − (− indicates a value of less than 10) | 100 to 1000 | 100 to 1000 | 10 to 100 |  |  |  | 
CNC(=O)c1ccc(N2CC(N3CCC(c4nc5ccccc5c(=O)[nH]4)C3)C2)cn1 (single isomer, unassigned) [Compound 61a] | + (+ indicates a value of 10 to less than 50) | 10 to 100 | 1000 to 10000 | 100 to 1000 |  |  |  | 
CNC(=O)c1ccc(N2CCC(C(=O)N3CCC(c4nc5ccccc5c(=O)[nH]4)CC3)CC2)cn1 [Compound 36] | +++ (+++ indicate a value of at least 100) |  | > 10000 | < 10 |  |  |  | Kd [1, 8]: < 10 nM
CNC(=O)c1ccc(N2CCC(N3CCC(c4cc5c(C(F)(F)F)cccc5c(=O)[nH]4)C3)CC2)cn1 (single isomer, unassigned) [Compound 167b] | +++ (+++ indicate a value of at least 100) | < 10 | 100 to 1000 | < 10 |  |  |  | 
CNC(=O)c1ccc(N2CCC(N3CCCC(c4ccc(CC(F)(F)F)c(=O)[nH]4)C3)CC2)cn1 (single isomer, unassigned) [Compound 169a] | − (− indicates a value of less than 10) | > 10000 | > 10000 | 1000 to 10000 |  |  |  | 
CNC(=O)c1cc(C)c(N2CCC(N3CCC(c4cc5ccccc5c(=O)[nH]4)C3)CC2)c(C)n1 (single isomer, unassigned) [Compound 205a] | + (+ indicates a value of 10 to less than 50) | 100 to 1000 | > 10000 | 100 to 1000 |  |  |  | 
CNC(=O)c1ccc(N2CCC(N3CCC(c4nc5ccc(C(F)(F)F)cc5c(=O)[nH]4)C3)CC2)cn1 (single isomer, unassigned) [Compound 161a] | − (− indicates a value of less than 10) | 100 to 1000 | > 10000 | 100 to 1000 |  |  |  | 
CNC(=O)c1csc(N2CCC(N3CCC(c4cc5ccccc5c(=O)[nH]4)C3)CC2)n1 (single isomer, unassigned) [Compound 274a] | − (− indicates a value of less than 10) |  |  |  | 1000 to 10000 | 100 to 1000 | 100 to 1000 | 
O=C(NC1CC1)c1ccc(N2CCC(N3CCC(c4cc5cccc(F)c5c(=O)[nH]4)C3)CC2)cn1 (single isomer, unassigned) [Compound 339b] | +++ (+++ indicate a value of at least 100) |  |  |  | 100 to 1000 | < 10 | < 10 | 
CNC(=O)c1ccc(N2CCC(N3CCC(Cc4nc5ccccc5c(=O)[nH]4)CC3)CC2)cn1 [Compound 54, N-methyl-5-(4-{4-[(4-oxo-3H-quinazolin-2-yl)methyl]piperidin-1-yl}piperidin-1-yl)pyridine-2-carboxamide] | +++ (+++ indicate a value of at least 100) |  | 100 to 1000 | < 10 |  |  |  | Kd [1, 8]: < 10 nM
